In paper PMC2844520 (The AAPS journal, 2010):

T1: Monoacylglycerol lipase (MAGL) (Mus musculus, UniProt O35678)
T1 sequence (O35678 1-303): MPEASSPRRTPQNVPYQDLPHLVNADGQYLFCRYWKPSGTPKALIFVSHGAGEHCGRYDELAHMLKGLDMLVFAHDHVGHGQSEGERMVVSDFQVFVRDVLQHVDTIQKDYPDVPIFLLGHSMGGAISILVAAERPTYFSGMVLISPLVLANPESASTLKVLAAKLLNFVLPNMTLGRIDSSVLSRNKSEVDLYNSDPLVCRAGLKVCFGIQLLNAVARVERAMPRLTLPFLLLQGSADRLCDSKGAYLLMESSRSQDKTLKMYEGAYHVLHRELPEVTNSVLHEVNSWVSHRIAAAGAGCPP


Tests used:
[1] = target: T1, Monoacylglycerol lipase (MAGL); test: inhibition of 3H-2-OG hydrolysis in MAGL-transfected COS-7 lysate; type: biochemical
[2] = substrate: CCCCC/C=C\C/C=C\C/C=C\C/C=C\CCCC(=O)SCC(O)CO; type: biochemical, Mus musculus; details: hydrolysis abolished by mutation of catalytic serine […] to alanine

Row | Molecule | IC50 [1] [nM] | Km [2] [µM]
1 | CCCCC/C=C\C/C=C\C/C=C\C/C=C\CCCCN1C(=O)C=CC1=O [NAM, N-arachidonyl maleimide] | 45.7 | 
2 | Monoacylglycerol lipase (MAGL) (Mus musculus) (protein) MPEASSPRRTPQNVPYQDLPHLVNADGQYLFCRYWKPSGTPKALIFVSHGAGEHCGRYDELAHMLKGLDMLVFAHDHVGHGQSEGERMVVSDFQVFVRDVLQHVDTIQKDYPDVPIFLLGHSMGGAISILVAAERPTYFSGMVLISPLVLANPESASTLKVLAAKLLNFVLPNMTLGRIDSSVLSRNKSEVDLYNSDPLVCRAGLKVCFGIQLLNAVARVERAMPRLTLPFLLLQGSADRLCDSKGAYLLMESSRSQDKTLKMYEGAYHVLHRELPEVTNSVLHEVNSWVSHRIAAAGAGCPP |  | 67.9
